Assay results as given in ChEMBL document CHEMBL5620426, “Discovery of 3-(1H-benzo[d]imidazole-2-yl)-1H-pyrazol-4 -amine derivatives as novel and potent syk inhibitors for the treatment of hematological malignancies” (Eur J Med Chem, 2023).

Columns and labels:
[1] = target: T1, Tyrosine-protein kinase SYK (Homo sapiens, UniProt P43405); experiment: Inhibition of Syk (unknown origin) preincubated for 20 mins followed by 33P-gamma-ATP measured after 120 mins by HotSpot assay
Ramos = experiment: Inhibition of […] in serum-starved human Ramos cells incubated for 1 hr followed by anti-human IgM F(ab)2 measured after 5 mins; format: functional, cell-based
MV4-11 [2] = experiment: Inhibition of cell viability in human MV4-11 cells incubated for 72 hrs by Cell Titer Glo assay; format: functional, cell-based; conditions: MV4-11, 72 h
[3] = Metabolic stability in human liver microsomes assessed as intrinsic clearance at […] incubated for 60 mins in presence of NADPH by LC-MS/MS analysis; format: ADME, Microsome; conditions: read-out: CLH
[4] = Metabolic stability in human liver microsomes assessed as half life at […] incubated for 60 mins in presence of NADPH by LC-MS/MS analysis; format: ADME, Microsome
[5] = target: T1, Tyrosine-protein kinase SYK; experiment: Inhibition of Syk (unknown origin) assessed as enzyme activity at 2 uM preincubated for 20 mins followed by 33P-gamma-ATP measured after 120 mins by HotSpot assay relative to control; set-up: scale not given: the % may be the effect or the level left; conditions: time 140.0 min
[6] = C0 in fasted Sprague-Dawley rat at 1 mg/kg, iv measured for 24 hrs by LC-MS/MS analysis; format: ADME, organism-based; conditions: in vivo
[7] = Half life in fasted Sprague-Dawley rat at 1 mg/kg, iv measured for 24 hrs by LC-MS/MS analysis; format: ADME, organism-based; conditions: in vivo
[8] = Clearance in fasted Sprague-Dawley rat at 1 mg/kg, iv measured for 24 hrs by LC-MS/MS analysis; format: ADME, organism-based; conditions: in vivo
[9] = Volume of distribution at steady state in fasted Sprague-Dawley rat at 1 mg/kg, iv measured for 24 hrs by LC-MS/MS analysis; format: ADME, organism-based; conditions: in vivo, read-out: Vdss
[10] = AUC in fasted Sprague-Dawley rat at 1 mg/kg, iv measured for 24 hrs by LC-MS/MS analysis; format: ADME, organism-based; conditions: in vivo
[11] = target: T1, Tyrosine-protein kinase SYK; experiment: Inhibition of SYK in human Ramos cells assessed as decrease in PLC-gamma-2 phosphorylation incubated for 2 hrs by Western blot analysis; format: cell-based; conditions: dose <= 500.0 nM
[12] = Toxicity in nude BALB/c mouse xenografted with human MV4-11 cells assessed as body weight loss at 1 mg/kg, iv qd for 21 days administered consecutively; format: organism-based; conditions: in vivo, 504 h, time 21 day
[13] = Toxicity in nude BALB/c mouse xenografted with human MV4-11 cells assessed as systemic cytotoxicity at 1 mg/kg, iv qd for 21 days administered consecutively; format: organism-based; conditions: in vivo, 504 h, time 21 day
Rec1 = experiment: Antiproliferative activity against human REC1 cells assessed as inhibition of cell viability incubated for 72 hrs by Cell Titer Glo assay; format: functional, cell-based; conditions: Rec1, 72 h
SU-DHL-6 = experiment: Antiproliferative activity against human SU-DHL-6 cells assessed as inhibition of cell viability incubated for 72 hrs by Cell Titer Glo assay; format: functional, cell-based; conditions: SU-DHL-6, 72 h
DOHH-2 = experiment: Antiproliferative activity against human DOHH-2 cells assessed as inhibition of cell viability incubated for 72 hrs by Cell Titer Glo assay; format: functional, cell-based; conditions: DOHH-2, 72 h
MV4-11 [14] = experiment: Antitumor activity against human MV4-11 cells xenografted in nude BALB/c mouse assessed as tumor growth inhibition at 1 mg/kg, iv qd for 21 days administered consecutively relative to control; format: functional; conditions: MV4-11, 504 h, time 21 day, read-out: TGI
[15] = Cmax in fasted Sprague-Dawley rat at 10 mg/kg, po measured for 24 hrs by LC-MS/MS analysis; format: ADME, organism-based; conditions: in vivo
[16] = Tmax in fasted Sprague-Dawley rat at 10 mg/kg, po measured for 24 hrs by LC-MS/MS analysis; format: ADME, organism-based; conditions: in vivo
[17] = target: T1, Tyrosine-protein kinase SYK; experiment: Inhibition of SYK phosphorylation in human Ramos cells incubated for 2 hrs by Western blot analysis; format: cell-based; conditions: dose <= 500.0 nM
[18] = Oral bioavailability in fasted Sprague-Dawley rat at 10 mg/kg measured for 24 hrs by LC-MS/MS analysis; format: ADME, organism-based; conditions: in vivo
[19] = AUC in fasted Sprague-Dawley rat at 10 mg/kg, po measured for 24 hrs by LC-MS/MS analysis; format: ADME, organism-based; conditions: in vivo
[20] = Half life in fasted Sprague-Dawley rat at 10 mg/kg, po measured for 24 hrs by LC-MS/MS analysis; format: ADME, organism-based; conditions: in vivo
[21] = Toxicity in nude BALB/c mouse xenografted with human MV4-11 cells assessed as animal mortality at 1 mg/kg, iv qd for 21 days administered consecutively; format: organism-based; conditions: in vivo, 504 h, time 21 day
TMD8 = experiment: Antiproliferative activity against human TMD8 cells assessed as inhibition of cell viability incubated for 72 hrs by Cell Titer Glo assay; format: functional, cell-based; conditions: TMD8, 72 h
Daudi = experiment: Antiproliferative activity against human Daudi cells assessed as inhibition of cell viability incubated for 72 hrs by Cell Titer Glo assay; format: functional, cell-based

Fc1ccc2[nH]c(-c3n[nH]cc3Nc3ncnc4[nH]ccc34)nc2c1
IC50 [1]: 33.6 nM

CN(C)CCN(C)c1ccc2[nH]c(-c3n[nH]cc3Nc3ncnc4[nH]ccc34)nc2c1
IC50 (Ramos): 35.9 nM
IC50 (MV4-11 [2]): 9.3 nM
microsomal CLint [3]: 15.9 µL/min/mg
half-life [4]: 1.45 h
IC50 [1]: 3.2 nM

O=C(Nc1nccc(Nc2c[nH]nc2-c2nc3ccccc3[nH]2)n1)c1ccccc1
IC50 [1]: 531 nM

CC(C)(C)c1ccc2[nH]c(-c3n[nH]cc3Nc3ncnc4[nH]ccc34)nc2c1
IC50 [1]: 67.4 nM

Cc1cc2nc(-c3n[nH]cc3Nc3ncnc4sccc34)[nH]c2cc1C
IC50 [1]: 77.6 nM

c1ccc2[nH]c(-c3n[nH]cc3Nc3ncnc4c3CCC4)nc2c1
Activity [5]: 18.5%

c1nc(Nc2c[nH]nc2-c2nc3cc(N4CCCCC4)ccc3[nH]2)c2cc[nH]c2n1
IC50 (Ramos): 184 nM
IC50 (MV4-11 [2]): 66.4 nM
IC50 [1]: 5.9 nM

c1ccc2[nH]c(-c3n[nH]cc3Nc3ncnc4ccccc34)nc2c1
IC50 [1]: 107 nM

Nc1cc(Nc2c[nH]nc2-c2nc3ccccc3[nH]2)ncn1
IC50 [1]: 135 nM

Nc1cccc(CNc2c[nH]nc2-c2nc3ccccc3[nH]2)c1
Activity [5]: 52.6%

CN(C)c1ccc2[nH]c(-c3n[nH]cc3Nc3ncnc4[nH]ccc34)nc2c1
IC50 (Ramos): 61.4 nM
IC50 (MV4-11 [2]): 19.7 nM
microsomal CLint [3]: 30.8 µL/min/mg
half-life [4]: 0.748 h
IC50 [1]: 2.7 nM

c1ccc2[nH]c(-c3n[nH]cc3NCc3ccncc3)nc2c1
IC50 [1]: 1780 nM

COc1cccc2[nH]c(-c3n[nH]cc3Nc3ncnc4[nH]ccc34)nc12
IC50 (Ramos): 29.8 nM
IC50 (MV4-11 [2]): 3.3 nM
microsomal CLint [3]: 14.3 µL/min/mg
half-life [4]: 1.62 h
IC50 [1]: 8.4 nM

C[C@@H]1CN(c2ccc3[nH]c(-c4n[nH]cc4Nc4ncnc5[nH]ccc45)nc3c2)C[C@H](C)O1
IC50 (Ramos): 46.8 nM
IC50 (MV4-11 [2]): 4.9 nM
microsomal CLint [3]: 16.4 µL/min/mg
half-life [4]: 1.41 h
IC50 [1]: 3 nM

c1ccc2[nH]c(-c3n[nH]cc3Nc3ccnc(NC4CCCC4)n3)nc2c1
Activity [5]: 36.3%

Cc1ccc2[nH]c(-c3n[nH]cc3Nc3ncnc4[nH]ccc34)nc2c1
IC50 [1]: 9.3 nM

Cc1nc(Nc2c[nH]nc2-c2nc3cc(C)c(C)cc3[nH]2)c2cc[nH]c2n1
IC50 [1]: 154 nM

Cc1ccc(CNc2c[nH]nc2-c2nc3ccccc3[nH]2)o1
Activity [5]: 60.5%

c1cc(N2CCCCC2)c2nc(-c3n[nH]cc3Nc3ncnc4[nH]ccc34)[nH]c2c1
IC50 [1]: 58 nM

COCCOc1ccc2[nH]c(-c3n[nH]cc3Nc3ncnc4[nH]ccc34)nc2c1
IC50 (Ramos): 78.9 nM
IC50 (MV4-11 [2]): 27.6 nM
IC50 [1]: 5.5 nM

Cc1nc(Cl)cc(Nc2c[nH]nc2-c2nc3ccccc3[nH]2)n1
IC50 [1]: 1220 nM

c1ccc2[nH]c(-c3n[nH]cc3Nc3ccnc(NCC4CCCCC4)n3)nc2c1
Activity [5]: 47.9%

Nc1nccc(Nc2c[nH]nc2-c2nc3ccccc3[nH]2)n1
IC50 [1]: 60.1 nM

CCN(CC)c1ccc2[nH]c(-c3n[nH]cc3Nc3ncnc4[nH]ccc34)nc2c1
IC50 (Ramos): 78.5 nM
IC50 (MV4-11 [2]): 36.1 nM
microsomal CLint [3]: 75.1 µL/min/mg
half-life [4]: 0.308 h
IC50 [1]: 8.6 nM

Cc1cccc2[nH]c(-c3n[nH]cc3Nc3ncnc4[nH]ccc34)nc12
IC50 (Ramos): 39.2 nM
IC50 (MV4-11 [2]): 11 nM
microsomal CLint [3]: 14.2 µL/min/mg
half-life [4]: 1.63 h
IC50 [1]: 5.6 nM

CN1CCN(c2ccc3[nH]c(-c4n[nH]cc4Nc4ncnc5[nH]ccc45)nc3c2)CC1
IC50 (Ramos): 49.5 nM
IC50 (MV4-11 [2]): 7.9 nM
C0 at 24 h [6]: 763 ng/mL
half-life [7]: 2.47 h
clearance [8]: 51.7 mL/min/kg
microsomal CLint [3]: 13.2 µL/min/mg
half-life [4]: 1.75 h
Vd [9]: 6.99 L/kg
AUC at 24 h [10]: 332 ng·h/mL
IC50 [1]: 1.6 nM

COc1ccc2[nH]c(-c3n[nH]cc3Nc3ncnc4[nH]ccc34)nc2c1
IC50 (Ramos): 41.5 nM
IC50 (MV4-11 [2]): 10.8 nM
microsomal CLint [3]: 79.9 µL/min/mg
half-life [4]: 0.288 h
IC50 [1]: 4.9 nM

c1ccc2[nH]c(-c3n[nH]cc3Nc3ncnc4[nH]ccc34)nc2c1
IC50 [1]: 20.5 nM

c1nc(Nc2c[nH]nc2-c2nc3cc(OCCN4CCOCC4)ccc3[nH]2)c2cc[nH]c2n1
IC50 (Ramos): 30.7 nM
IC50 (MV4-11 [2]): 12.4 nM
microsomal CLint [3]: 63.9 µL/min/mg
half-life [4]: 0.453 h
IC50 [1]: 1.1 nM

Nc1nccc(Nc2c[nH]nc2-c2nc3ccccc3s2)n1
IC50 [1]: 163 nM

Clc1nccc(Nc2c[nH]nc2-c2nc3ccccc3[nH]2)n1
IC50 [1]: 240 nM

Cc1cc2nc(-c3n[nH]cc3Nc3ncnc4[nH]ccc34)[nH]c2cc1C
IC50 (Ramos): 47.7 nM
IC50 (MV4-11 [2]): 29.8 nM
microsomal CLint [3]: 70.4 µL/min/mg
half-life [4]: 0.328 h
IC50 [1]: 3.6 nM

COC(=O)c1cc(Nc2c[nH]nc2-c2nc3ccccc3[nH]2)nc(Cl)n1
IC50 [1]: 321 nM

Clc1cc(Nc2c[nH]nc2-c2nc3ccccc3[nH]2)nc(N2CCOCC2)n1
Activity [5]: 91.2%

c1cc(N2CCCC2)c2nc(-c3n[nH]cc3Nc3ncnc4[nH]ccc34)[nH]c2c1
IC50 (Ramos): 26.8 nM
IC50 (MV4-11 [2]): 82.5 nM
microsomal CLint [3]: 78.1 µL/min/mg
half-life [4]: 0.74 h
IC50 [1]: 14.5 nM

CCNc1c[nH]nc1-c1nc2ccccc2[nH]1
IC50 [1]: 15800 nM

CN(C)c1cccc2[nH]c(-c3n[nH]cc3Nc3ncnc4[nH]ccc34)nc12
IC50 (Ramos): 18.5 nM
IC50 (MV4-11 [2]): 20.4 nM
microsomal CLint [3]: 52.2 µL/min/mg
half-life [4]: 0.555 h
IC50 [1]: 11.1 nM

Cc1cc2nc(-c3n[nH]cc3Nc3ccnc4[nH]ccc34)[nH]c2cc1C
IC50 [1]: 28.2 nM

Cc1cc2nc(-c3n[nH]cc3Nc3ncnc4c3ccn4C)[nH]c2cc1C
IC50 [1]: 21.4 nM

c1ccc(Nc2nccc(Nc3c[nH]nc3-c3nc4ccccc4[nH]3)n2)cc1
IC50 [1]: 687 nM

CCN(CC)CCNc1nccc(Nc2c[nH]nc2-c2nc3ccccc3[nH]2)n1
Activity [5]: 40.5%

Cn1c(-c2n[nH]cc2Nc2ccnc(N)n2)nc2ccccc21
Activity [5]: 92.3%

c1ccc2[nH]c(-c3n[nH]cc3NC3CCNCC3)nc2c1
Activity [5]: 82.7%

Clc1ccc2[nH]c(-c3n[nH]cc3Nc3ncnc4[nH]ccc34)nc2c1
IC50 [1]: 172 nM

CC(C)N1CCN(c2ccc3[nH]c(-c4n[nH]cc4Nc4ncnc5[nH]ccc45)nc3c2)CC1
IC50 (Ramos): 18 nM
inhibition [11]: Dose-Dependent Effect
IC50 (MV4-11 [2]): 1.5 nM
Activity [12]: Non-Toxic
Activity [13]: Non-Toxic
IC50 (Rec1): 34.3 nM
C0 at 24 h [6]: 1240 ng/mL
IC50 (SU-DHL-6): 216 nM
half-life [7]: 6.4 h
IC50 (DOHH-2): 8.68 nM
clearance [8]: 33.3 mL/min/kg
inhibition in vivo at 1 mg/kg (MV4-11 [14]): 99.3%
microsomal CLint [3]: 15.4 µL/min/mg
Cmax [15]: 18.1 ng/mL
Tmax [16]: 0.833 h
inhibition [17]: Dose-Dependent Effect
bioavailability [18]: 1.5%
half-life [4]: 1.88 h
AUC at 24 h [19]: 78.8 ng·h/mL
half-life [20]: 3.79 h
Activity [21]: Non-Toxic
Vd [9]: 8.93 L/kg
IC50 (TMD8): 10.9 nM
IC50 (Daudi): 719 nM
AUC at 24 h [10]: 514 ng·h/mL
IC50 [1]: 0.52 nM
